Measured values reported in the NIST ThermoML archive (doi:10.1016/j.jct.2016.03.036).
Several values for one entry are separate records, joined by “and”; a condition that tells them apart may be missing. Equal values may be shown once. ± gives the expanded uncertainty stated by the source.

Test: xn = mol fraction of the nth substance listed
Details: Gas, Spherical resonator

[Ar] [argon] + O=C=O
Details	speed of sound
274.99 K, 4022.9 kPa, x2 = 0.501	263.92 ± 0.45 m/s and 263.91 ± 0.45 m/s
274.99 K, 4023.2 kPa, x2 = 0.501	263.86 ± 0.45 m/s
274.99 K, 6072.9 kPa, x2 = 0.501	257.99 ± 0.44 m/s and 257.96 ± 0.44 m/s
274.99 K, 6073.3 kPa, x2 = 0.501	258.01 ± 0.44 m/s
275 K, 2006.3 kPa, x2 = 0.501	270.61 ± 0.46 m/s and 270.59 ± 0.46 m/s
275 K, 2006.4 kPa, x2 = 0.501	270.44 ± 0.46 m/s
275 K, 8215.3 kPa, x2 = 0.501	254.18 ± 0.43 m/s and 254.17 ± 0.43 m/s
275 K, 8216.3 kPa, x2 = 0.501	253.76 ± 0.43 m/s
276.09 K, 501.14 kPa, x2 = 0.7498	264.91 ± 0.45 m/s
276.09 K, 1998.9 kPa, x2 = 0.7498	255.17 ± 0.49 m/s and 255.16 ± 0.44 m/s
276.09 K, 1999 kPa, x2 = 0.7498	255.07 ± 0.43 m/s
276.09 K, 4003.2 kPa, x2 = 0.7498	240.29 ± 0.41 m/s
276.09 K, 4003.3 kPa, x2 = 0.7498	240.28 ± 0.41 m/s
276.09 K, 4003.6 kPa, x2 = 0.7498	240.29 ± 0.41 m/s
276.09 K, 4995.2 kPa, x2 = 0.7498	231.83 ± 0.41 m/s and 231.82 ± 0.41 m/s
276.09 K, 4995.7 kPa, x2 = 0.7498	232.3 ± 0.41 m/s
276.09 K, 5295.4 kPa, x2 = 0.7498	229.02 ± 0.41 m/s and 229.01 ± 0.41 m/s
276.09 K, 5296 kPa, x2 = 0.7498	229.56 ± 0.41 m/s
276.09 K, 5399.3 kPa, x2 = 0.7498	228 ± 0.41 m/s
276.09 K, 5399.8 kPa, x2 = 0.7498	228.57 ± 0.41 m/s
276.09 K, 5502.4 kPa, x2 = 0.7498	226.98 ± 0.41 m/s
276.09 K, 5503 kPa, x2 = 0.7498	227.57 ± 0.4 m/s
290.01 K, 485.29 kPa, x2 = 0.7498	271.44 ± 0.46 m/s
290.01 K, 1978.9 kPa, x2 = 0.7498	263.38 ± 0.45 m/s and 263.41 ± 0.45 m/s
290.01 K, 1979 kPa, x2 = 0.7498	263.3 ± 0.45 m/s
290.01 K, 4023.1 kPa, x2 = 0.7498	251.71 ± 0.43 m/s and 251.65 ± 0.43 m/s
290.01 K, 4023.4 kPa, x2 = 0.7498	251.64 ± 0.43 m/s
290.01 K, 6011.9 kPa, x2 = 0.7498	239.66 ± 0.41 m/s
290.01 K, 6012.1 kPa, x2 = 0.7498	239.67 ± 0.41 m/s
290.01 K, 6012.7 kPa, x2 = 0.7498	240.25 ± 0.41 m/s
290.01 K, 8057 kPa, x2 = 0.7498	227.35 ± 0.4 m/s
290.01 K, 8057.4 kPa, x2 = 0.7498	227.74 ± 0.4 m/s
290.02 K, 8057.1 kPa, x2 = 0.7498	227.32 ± 0.4 m/s
299.85 K, 8170.1 kPa, x2 = 0.501	275.03 ± 0.47 m/s
299.85 K, 8170.2 kPa, x2 = 0.501	275.04 ± 0.47 m/s
299.85 K, 8170.7 kPa, x2 = 0.501	275.13 ± 0.47 m/s
299.94 K, 1986.8 kPa, x2 = 0.501	283.88 ± 0.48 m/s and 283.89 ± 0.48 m/s
299.94 K, 1987 kPa, x2 = 0.501	283.79 ± 0.48 m/s
299.94 K, 4020.8 kPa, x2 = 0.501	279.77 ± 0.47 m/s
299.95 K, 494.36 kPa, x2 = 0.501	287.27 ± 0.48 m/s
299.95 K, 4020.5 kPa, x2 = 0.501	279.84 ± 0.47 m/s and 279.82 ± 0.47 m/s
299.95 K, 6007.5 kPa, x2 = 0.501	276.82 ± 0.47 m/s
299.95 K, 6007.9 kPa, x2 = 0.501	276.82 ± 0.47 m/s
299.95 K, 7657.9 kPa, x2 = 0.501	275.37 ± 0.47 m/s
299.95 K, 7658 kPa, x2 = 0.501	275.38 ± 0.47 m/s
299.96 K, 7658.9 kPa, x2 = 0.501	275.44 ± 0.47 m/s
310 K, 5999.6 kPa, x2 = 0.7498	258 ± 0.44 m/s
310.01 K, 488.28 kPa, x2 = 0.7498	280.3 ± 0.47 m/s
310.01 K, 1980.9 kPa, x2 = 0.7498	274.11 ± 0.46 m/s and 274.12 ± 0.46 m/s
310.01 K, 1981 kPa, x2 = 0.7498	274.01 ± 0.46 m/s
310.01 K, 4023.9 kPa, x2 = 0.7498	265.68 ± 0.45 m/s and 265.67 ± 0.45 m/s
310.01 K, 4024.2 kPa, x2 = 0.7498	265.61 ± 0.45 m/s
310.01 K, 5999.7 kPa, x2 = 0.7498	257.99 ± 0.44 m/s
310.01 K, 6000.2 kPa, x2 = 0.7498	258.01 ± 0.44 m/s
310.01 K, 8062.5 kPa, x2 = 0.7498	251.41 ± 0.43 m/s
310.01 K, 8062.7 kPa, x2 = 0.7498	251.51 ± 0.43 m/s
310.01 K, 8063.3 kPa, x2 = 0.7498	251.52 ± 0.43 m/s
350.01 K, 487.4 kPa, x2 = 0.501	308.87 ± 0.52 m/s
350.01 K, 500.81 kPa, x2 = 0.7498	296.88 ± 0.5 m/s
350.01 K, 1987.2 kPa, x2 = 0.7498	293.21 ± 0.49 m/s
350.01 K, 1987.3 kPa, x2 = 0.7498	293.13 ± 0.49 m/s
350.01 K, 1987.4 kPa, x2 = 0.7498	293.08 ± 0.49 m/s
350.01 K, 1989.8 kPa, x2 = 0.501	307.6 ± 0.52 m/s and 307.57 ± 0.52 m/s
350.01 K, 1990 kPa, x2 = 0.501	307.46 ± 0.52 m/s
350.01 K, 4001.2 kPa, x2 = 0.501	306.39 ± 0.52 m/s and 306.37 ± 0.51 m/s
350.01 K, 4001.5 kPa, x2 = 0.501	306.3 ± 0.51 m/s
350.01 K, 4010.3 kPa, x2 = 0.7498	288.58 ± 0.49 m/s and 288.52 ± 0.54 m/s
350.01 K, 4010.6 kPa, x2 = 0.7498	288.5 ± 0.49 m/s
350.01 K, 6002.2 kPa, x2 = 0.501	305.92 ± 0.51 m/s and 305.92 ± 0.52 m/s
350.01 K, 6002.6 kPa, x2 = 0.501	305.94 ± 0.51 m/s
350.01 K, 6017.8 kPa, x2 = 0.7498	284.82 ± 0.48 m/s and 284.81 ± 0.48 m/s
350.01 K, 6018.2 kPa, x2 = 0.7498	284.8 ± 0.48 m/s
350.01 K, 7290.6 kPa, x2 = 0.501	306.26 ± 0.52 m/s and 306.02 ± 0.56 m/s
350.01 K, 7291.2 kPa, x2 = 0.501	306.19 ± 0.51 m/s
350.01 K, 8200.3 kPa, x2 = 0.7498	282.09 ± 0.48 m/s and 282.08 ± 0.48 m/s
350.01 K, 8201 kPa, x2 = 0.7498	282.12 ± 0.48 m/s
400.13 K, 501.93 kPa, x2 = 0.7498	316.14 ± 0.53 m/s
400.13 K, 1988.1 kPa, x2 = 0.7498	314.38 ± 0.53 m/s and 314.32 ± 0.54 m/s
400.13 K, 1988.3 kPa, x2 = 0.7498	314.31 ± 0.53 m/s
400.13 K, 4018.3 kPa, x2 = 0.7498	312.3 ± 0.52 m/s and 312.25 ± 0.53 m/s
400.13 K, 4018.6 kPa, x2 = 0.7498	312.17 ± 0.52 m/s
400.13 K, 6013.1 kPa, x2 = 0.7498	310.98 ± 0.52 m/s and 310.94 ± 0.52 m/s
400.13 K, 6013.5 kPa, x2 = 0.7498	310.89 ± 0.52 m/s
400.13 K, 7954.4 kPa, x2 = 0.7498	310.44 ± 0.52 m/s
400.13 K, 7954.5 kPa, x2 = 0.7498	310.43 ± 0.52 m/s
400.13 K, 7955.1 kPa, x2 = 0.7498	310.44 ± 0.52 m/s
400.19 K, 2000.8 kPa, x2 = 0.501	328.69 ± 0.55 m/s and 328.63 ± 0.55 m/s
400.19 K, 2000.9 kPa, x2 = 0.501	328.52 ± 0.55 m/s
400.2 K, 451.92 kPa, x2 = 0.501	328.79 ± 0.55 m/s
400.2 K, 4008.7 kPa, x2 = 0.501	328.95 ± 0.55 m/s and 329.02 ± 0.55 m/s
400.2 K, 4009 kPa, x2 = 0.501	328.85 ± 0.55 m/s
400.2 K, 5980.4 kPa, x2 = 0.501	329.82 ± 0.7 m/s and 329.89 ± 0.55 m/s
400.2 K, 5980.8 kPa, x2 = 0.501	329.73 ± 0.55 m/s
400.2 K, 7411 kPa, x2 = 0.501	330.82 ± 0.55 m/s
400.2 K, 7411.2 kPa, x2 = 0.501	330.79 ± 0.55 m/s
400.2 K, 7411.7 kPa, x2 = 0.501	330.75 ± 0.55 m/s
500.46 K, 1988.3 kPa, x2 = 0.501	365.88 ± 0.65 m/s and 365.86 ± 0.68 m/s
500.46 K, 1988.4 kPa, x2 = 0.501	365.73 ± 0.61 m/s
500.46 K, 4007.9 kPa, x2 = 0.501	367.67 ± 0.61 m/s and 367.61 ± 0.62 m/s
500.46 K, 4008.1 kPa, x2 = 0.501	367.56 ± 0.61 m/s
500.46 K, 6008.3 kPa, x2 = 0.501	369.75 ± 0.61 m/s and 369.73 ± 0.69 m/s
500.46 K, 6008.7 kPa, x2 = 0.501	369.69 ± 0.61 m/s
500.46 K, 7264.4 kPa, x2 = 0.501	371.24 ± 0.61 m/s and 371.28 ± 0.61 m/s
500.46 K, 7264.8 kPa, x2 = 0.501	371.19 ± 0.61 m/s
500.48 K, 501.81 kPa, x2 = 0.7498	351 ± 0.58 m/s
500.48 K, 2003.9 kPa, x2 = 0.7498	351.19 ± 0.58 m/s and 351.23 ± 0.58 m/s
500.48 K, 2004 kPa, x2 = 0.7498	351.03 ± 0.58 m/s
500.48 K, 4010 kPa, x2 = 0.7498	351.64 ± 0.58 m/s and 351.63 ± 0.58 m/s
500.48 K, 4010.3 kPa, x2 = 0.7498	351.5 ± 0.58 m/s
500.48 K, 6000.8 kPa, x2 = 0.7498	352.54 ± 0.59 m/s and 352.49 ± 0.66 m/s
500.48 K, 6001.2 kPa, x2 = 0.7498	352.39 ± 0.59 m/s
500.49 K, 8007.4 kPa, x2 = 0.7498	353.87 ± 0.59 m/s
500.49 K, 8007.5 kPa, x2 = 0.7498	353.82 ± 0.59 m/s
500.49 K, 8008 kPa, x2 = 0.7498	353.78 ± 0.59 m/s
500.5 K, 476.59 kPa, x2 = 0.501	364.75 ± 0.6 m/s
